In patent EP0322748B1, “Antibiotic NK86-0279, process for production of the same and application of the same” (NIPPON KAYAKU KABUSHIKI KAISHA, priority 1987, dated 1989):
In brackets after ≈: the same amount, converted by molar mass.

Columns and labels:
Penicillium chrysogenum = experiment: antifungal spectrum (minimum inhibitory concentration on agar); assay type: cell-based; conditions: Czapek Dox solution agar
Text: (§1) The antifungal spectrum of the compound of the present invention was examined.

Aspergillus niger = experiment: as above; assay type: cell-based; conditions: Czapek Dox solution agar
Text: as §1

[1] = system: mouse colonic cancer cells (Colon 26); experiment: growth-inhibitory effect on mouse colonic cancer cells, dye exclusion method; assay type: cell-based
Protocol: The growth-inhibitory effects of the compound of the present invention on mouse colonic cancer cells (Colon 26) and human colonic cancer cells (SWlll6) were examined. A 96-well plate was inoculated with mouse colonic cancer cells at a ratio of 1.5 x 10³ cells per well, while another 96-well plate was inoculated with human colonic cancer cells at a ratio of 3.0 x 10³ per well. These cells were incubated in an incubator at 37°C under 5 % CO₂ for 24 hours. Then the compound of the present invention was added thereto at various concentrations. Cells in each well were counted by the dye exclusion method 65 hours and 96 hours after the addition to thereby evaluate the growth-inhibitory effect of the test compound on the mouse colonic cancer cells and that on the human colonic cancer cells.

[2] = system: mosquito culices (a sensitive species); experiment: insecticidal action, mortality rate of mosquito larvae; assay type: in vivo
Protocol: The insecticidal action of the compound of the present invention was examined by the following method. • (1) An imago of two-spotted spider mite acarids (a Kelthane-resistant species) was used as a test vermin, and the mortality rate thereof was assayed according to an ordinary method (described on page 327 of "Noyaku Seibutsu Kenteiho" edited by Toyoji Hosotsuji). Specifically, a solution of the compound of the present invention in acetone (0.1 %) was added to 0.5 ml of an aqueous sucrose solution (1 %) to have a predetermined concentration. Ten two-spotted spider mite acarids were released in a vessel (200-ml beaker), and the vessel was covered with a paraffin film. The agent solution prepared above was put on the paraffin film, and another praffin film was put thereon. The beaker was allowed to stand in a thermostatic chamber (20 ± 1°C) for a predetermined period of time, and the life and death of the test vermin was investigated. • (2) A larva of mosquito culices (a sensitive species) was used as a test vermin, and the mortality rate thereof was assayed according to an ordinary method (described on page 109 of "Noyaku Jikkenho I, Sacchuzaihen" published by Soft Science, Inc.). Specifically, 10 ml of well water was placed in a vessel (15-ml Schale), and 5 larvae of mosquito culices (the third stage) were released in the vessel. A solution of the compound of the present invention in acetone (0.1 %) was added thereto so as to have a predetermined concentration. The vessel was allowed to stand in a thermostatic chamber (26 ± 1°C) for a predetermined period of time, and the life and death of the test vermin was investigated.

[3] = system: human pulmonary cancer cells (PC-3); experiment: growth-inhibitory effect on human pulmonary cancer cells, dye exclusion method; assay type: cell-based; conditions: 72 h
Protocol: (§2) The growth-inhibitory effects of the compound of the present invention on mouse pulmonary cancer cells (LL) and human plumonary cancer cells (PC-3) were examined.
(§3) A 96-well plate was inoculated with mouse pulmonary cancer cells at a ratio of 8.0 x 10² cells per well, while another 96-well plate was inoculated with human pulmonary cancer cells at a ratio of 2.5 x 10³ per well. These cells were incubated in an incubator at 37°C under 5 % CO₂ for 24 hours. Then the compound of the present invention was added thereto at various concentrations. Cells in each well were counted by the dye exclusion method three days after the addition to thereby evaluate the growth-inhibitory effect of the test compound on the mouse pulmonary cancer cells (LL) and that on the human pulmonary cancer cells (PC-3).

[4] = system: mouse lung cancer (lewis lung carcinoma); experiment: anti-cancer action against grafted mouse lung cancer, tumor volume; assay type: in vivo; conditions: mouse pulmonary cancer
Text: The anti-cancer action of the compound of the present invention against mouse lung cancer (lewis lung carcinoma) and mouse breast cancer (Ehrlich B) was examined. 1 x 10⁶ mouse lung cancer cells or mouse breast cancer cells were grafted into a subcutaneous portion of the groin of an eight week-old male BDF₁ or ICR mouse, and the compound of the present invention was intraperitoneally administered to the mouse in various concentrations every day from two days after the graft once a day for 9 days. On the second day after completion of the administration, the minor axis and the major axis of the tumor were measured, and the volume of the tumor was determined by using the following equation: (minor axis)² x […]/2 [formula] . Then, the percentage inhibition of proliferation of each tumor with respect to the compound of the present invention was determined from the ratio of the volume of the tumor on the groups of administration of the compound of the present invention relative to that on the control group.

[5] = system: mouse pulmonary cancer cells (LL); experiment: growth-inhibitory effect on mouse pulmonary cancer cells, dye exclusion method; assay type: cell-based; conditions: 72 h
Protocol: as §2, §3

[6] = system: vascularization by the Ehrlich ascites tumor cells crude extract; experiment: vascularization-inhibitory effect, corneal assay; assay type: in vivo; conditions: slow-releasing pellet in rabbit cornea, compared with a control group
Protocol: The vascularization-inhibitory effect of the compound of the present invention was examined by corneal assay reported by M.A. Gimbrone et al. (J. National Cancer Inst., 52, 413 (1974)). Namely, the center of the cornea of the eye of a rabbit was incised with a knife at a length of approximately 2 mm to thereby form a pouch. Then a slow-releasing pellet containing 100 µg of a crude extract of Ehrlich ascites tumor cells, which had been preliminarily prepared according to a method proposed by R. Langer et al. (Nature, 263, 797 […]), was introduced into the pouch. Further another slow-releasing pellet containing 0.3 to 81 µg of the compound of the present invention was introduced thereinto so as to contact these pellets with each other. Then the degree of vascularization was observed four, six, eight and ten days after the introduction.

Compound `CCC1C=CC=CCC(C)C(O)C(C)(O)C(=O)C(C)C(O)C(C)C(=O)C(C)C(O)C(C)C=CC(=O)OC2C(C)C(CC1)OC1(OC(CC(C)O)C(C)CC1=O)C2CC` (centres unmarked) [NK86-0279] has an MIC (Penicillium chrysogenum) of 1.56 µg/mL (≈ 1.9 µM), an MIC (Aspergillus niger) of 6.25 µg/mL (≈ 7.63 µM) and an inhibition at 0.0061 µg/mL ([1]; Mus musculus, Colon 26, 0.0061 µg/ml, read-out: Growth-inhibitory ratio) of 84.6%. For the same compound, the inhibition at 0.024 µg/mL ([1]; Mus musculus, Colon 26, 0.024 µg/ml, read-out: Growth-inhibitory ratio) was 87.5%, the inhibition at 0.098 µg/mL ([1]; Mus musculus, Colon 26, 0.098 µg/ml, read-out: Growth-inhibitory ratio) was 86.1% and the inhibition at 0.39 µg/mL ([1]; Mus musculus, Colon 26, 0.39 µg/ml, read-out: Growth-inhibitory ratio) was 87.6%. It also gave an inhibition at 1.56 µg/mL ([1]; Mus musculus, Colon 26, 1.56 µg/ml, read-out: Growth-inhibitory ratio) of 94.2%, an inhibition at 6.25 µg/mL ([1]; Mus musculus, Colon 26, 6.25 µg/ml, read-out: Growth-inhibitory ratio) of 105% and an inhibition at 25 µg/mL ([1]; Mus musculus, Colon 26, 25 µg/ml, read-out: Growth-inhibitory ratio) of 108%. The inhibition at 100 µg/mL ([1]; Mus musculus, Colon 26, 100 µg/ml, read-out: Growth-inhibitory ratio) was 104%, the IC50 ([1]; mouse colonic cancer cells (Colon 26), read-out: IC₅₀) was less than 0.0061 µg/mL and the mortality at 1 ppm ([2]; 48 h, after 2 days) was 0%. It also gave a mortality at 10 ppm ([2]; 48 h, after 2 days) of 100%, a mortality at 1 ppm ([2]; 144 h, 6 days) of 0% and a mortality at 10 ppm ([2]; 144 h, 6 days) of 100%. It also gave a mortality at 1 ppm ([2]; 216 h, 9 days) of 0%, a mortality at 10 ppm ([2]; 216 h, 9 days) of 100% and an IC50 ([3]; human pulmonary cancer cells (PC-3), three days after the addition, read-out: IC₅₀) of 2.13 µg/mL (≈ 2.6 µM). For the same compound, the inhibition at 0.024 µg/mL ([3]; Homo sapiens, PC-3, 0.024 µg/ml, read-out: Growth-inhibitory ratio) was 25.1%, the inhibition at 0.061 µg/mL ([3]; Homo sapiens, PC-3, 0.061 µg/ml, read-out: Growth-inhibitory ratio) was 12% and the inhibition at 0.098 µg/mL ([3]; Homo sapiens, PC-3, 0.098 µg/ml, read-out: Growth-inhibitory ratio) was 28.1%. The inhibition at 0.39 µg/mL ([3]; Homo sapiens, PC-3, 0.39 µg/ml, read-out: Growth-inhibitory ratio) was 28%, the inhibition at 1.56 µg/mL ([3]; Homo sapiens, PC-3, 1.56 µg/ml, read-out: Growth-inhibitory ratio) was 38.1% and the inhibition at 6.25 µg/mL ([3]; Homo sapiens, PC-3, 6.25 µg/ml, read-out: Growth-inhibitory ratio) was 85.9%. The inhibition at 25 µg/mL ([3]; Homo sapiens, PC-3, 25 µg/ml, read-out: Growth-inhibitory ratio) was 99.3%, the inhibition at 100 µg/mL ([3]; Homo sapiens, PC-3, 100 µg/ml, read-out: Growth-inhibitory ratio) was 97.2% and the “Growth-inhibitory ratio (tumor volume)” value ([4]; 0.063 mg/kg intraperitoneally once a day for 9 days) was 46.3%. The “Growth-inhibitory ratio (tumor volume)” value ([4]; 0.125 mg/kg intraperitoneally once a day for 9 days) was 57.1%, the “Growth-inhibitory ratio (tumor volume)” value ([4]; 0.250 mg/kg intraperitoneally once a day for 9 days) was 8.9% and the “Growth-inhibitory ratio (tumor volume)” value ([4]; 0.500 mg/kg intraperitoneally once a day for 9 days) was 59.6%. For the same compound, the IC50 ([5]; mouse pulmonary cancer cells (LL), three days after the addition, read-out: IC₅₀) was 0.0098 µg/mL (≈ 0.012 µM), the inhibition at 0.024 µg/mL ([5]; Mus musculus, LL, 0.024 µg/ml, read-out: Growth-inhibitory ratio) was 30.4% and the inhibition at 0.061 µg/mL ([5]; Mus musculus, LL, 0.061 µg/ml, read-out: Growth-inhibitory ratio) was -5.7%. It also gave an inhibition at 0.098 µg/mL ([5]; Mus musculus, LL, 0.098 µg/ml, read-out: Growth-inhibitory ratio) of 50%, an inhibition at 0.39 µg/mL ([5]; Mus musculus, LL, 0.39 µg/ml, read-out: Growth-inhibitory ratio) of 61% and an inhibition at 1.56 µg/mL ([5]; Mus musculus, LL, 1.56 µg/ml, read-out: Growth-inhibitory ratio) of 92.1%. For the same compound, the inhibition at 6.25 µg/mL ([5]; Mus musculus, LL, 6.25 µg/ml, read-out: Growth-inhibitory ratio) was 114%, the inhibition at 25 µg/mL ([5]; Mus musculus, LL, 25 µg/ml, read-out: Growth-inhibitory ratio) was 110% and the inhibition at 100 µg/mL ([5]; Mus musculus, LL, 100 µg/ml, read-out: Growth-inhibitory ratio) was 109%. For the same compound, the degree of vascularization ([6]; 1 µg or above) was “significantly retarded till the fourth day” and the degree of vascularization ([6]; 1.7 µg or above) was “till the eighth day”.
